Tests used:
[1] = target: T1, PAF receptor (human platelet plasma membranes) (Homo sapiens, UniProt P25105); assay: Inhibition of [^3 H]-PAF receptor binding to human platelet plasma membranes; details: [^3 H]-PAF 0.5 nM, 0° C., 1 hour incubation, pH 7.0
T1 construct: Platelet concentrates were obtained from a hospital blood bank; from tissue; host or cells: human platelets (platelet concentrates from a hospital blood bank), lysed membranes
Description: The inhibition of [^3 H]-PAF binding to human platelet plasma membranes by compounds of general formula I was determined by isotopic labelling and filtration techniques. Platelet concentrates were obtained from a hospital blood bank. These platelet concentrates (500-2500 ml.) were centrifuged at 800 rpm for 10 minutes in a SORVALL RC3B centrifuge to remove the red blood cells present. (The word SORVALL is a trade mark.) The supernalant was subsequently centrifuged at 3,000 rpm in a SORVALL RC3B centrifuge to pellet the platelets present. The platelet rich pellets were resuspended in a minimum volume of buffer (150 mM NaCl, 10 mM Tris, 2 mM EDTA, pH 7.5) and layered onto Ficoll-Paque gradients, 9 ml platelet concentrate to 2 ml Ficoll, and centrifuged at 1,900 rpm for 15 minutes in a SORVALL RT6000 centrifuge. This step removes the residual red blood cells and other nonspecific material such as lymphocytes from the preparation. The platelets which form a band between the plasma and the Ficoll were removed, resuspended in the above buffer and centrifuged at 3,000 rpm for 10 minutes in a SORVALL RT6000 centrifuge. The pelleted platelets were resuspended in buffer (10 mM Tris, 5mM MgCl2, 2 mM EDTA, pH 7.0), snap freezed in liquid N2 and allowed to thaw slowly at room temperature in order to lyse the platelets. The latter step was repeated at least 3 times to ensure proper lysis. […]

[2] = tested on: PAF-induced hypotension in the rat; assay: Inhibition of PAF-induced hypotension in the rat; format: in vivo, rat (male Sprague-Dawley); details: iv, anaesthetised rats, PAF 100 ng/kg/min i.v. infusion, test compound i.v. bolus, straight line interpolation, read-out: ED50, dose to cause a 50% reversal of the hypotensive PAF response
Description: Male Sprague-Dawley rats (300-400 g) were anaesthetised with a mixture of sodium pentobarbitone, 22.5 mg/kg and thiopental 62.5 mg/kg. Through a midline incision in the neck, the trachea was cannulated and the animals breathed spontaneously. A carotid artery was cannulated for the measurement of blood pressure and this signal was used to trigger a rate meter to measure heart rate. Both jugular veins were cannulated: one for the infusion of PAF and the other for the bolus administration of test compounds.
PAF, 100 ng/kg/min was infused i.v. until a sustained fall in mean blood pressure of 50 mmHg was achieved. […] The peak of this reversal was measured and the dose to cause a 50% reversal of the hypotensive PAF response (ED50) calculated by straight line interpolation and the results are presented in Table 2.

T1 sequence (P25105 whole entry): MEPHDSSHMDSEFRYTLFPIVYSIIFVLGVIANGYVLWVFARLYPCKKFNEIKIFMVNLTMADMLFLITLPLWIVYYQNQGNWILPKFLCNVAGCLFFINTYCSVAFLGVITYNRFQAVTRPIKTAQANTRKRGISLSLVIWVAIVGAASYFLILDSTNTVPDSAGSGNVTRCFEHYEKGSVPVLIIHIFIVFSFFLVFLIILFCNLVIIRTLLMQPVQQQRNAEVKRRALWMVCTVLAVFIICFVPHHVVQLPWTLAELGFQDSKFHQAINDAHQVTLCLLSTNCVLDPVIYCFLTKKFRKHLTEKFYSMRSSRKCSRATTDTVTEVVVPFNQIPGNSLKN

IC50 [1] [nM]	Structure (SMILES)	ED50 [2] [µg/kg]
80	CCCCCCCC1CCCC(OCCCn2c(C)nc3cnccc32)O1 (stereo not drawn) [Example 1, O-(3-(2-Methylimidazo[4,5-c]pyrid-1-yl)propyl)-5-n-heptyl-delta-valerolactol ether]	–
120	CCCCCCCC1CCC(OCCCn2c(C)nc3cnccc32)O1 (stereo not drawn) [Example 2, O-(3-(2-Methylimidazo[4,5-c]pyrid-1-yl)propyl)-5-n-heptyl-gamma-butyrolactol ether]	2.1
